Measurements taken from patent US11103619B2, “Anticalcification treatment for impantable biological tissues using calcitonin” (priority 2018, dated 2021).

Tested on: Porcine aortic leaflets implanted subdermally in male Wistar rats
Assay: Post-implantation calcium content of treated porcine aortic leaflets implanted subdermally in rats for 21 days, measured by atomic absorption
Assay type: in vivo
Conditions: for Cumulative results of post-implantation Ca concentration: mean ± STDEV, p < 0.05 vs Group I (Glut only, 126.95 ± 12.97); for Post implantation Ca Content: explanted after 21 days, mean
Description: In one embodiment, the method comprises placing the biological tissue for fixation and preservation in a buffered glutaraldehyde (Glut) solution 0.5% at pH 7.4, adding salmon synthetic calcitonin (CT), such as Miacalcic® of Novartis Hellas A.B.E. In this experiment, two different concentrations of calcitonin were tested. One with 1 unit/100 ml (1%) and the other with 10 units/100 ml (10%). The first fixation process lasted one hour, at a pressure between 2-3 mmHg and subsequently the biological tissues were embedded in an accordingly new solution for one week.
Porcine aortic leaflets were selected as fresh tissue from a local slaughter house and were cut radially in three parts. Following harvesting, the biological tissue is rinsed and maintained in cold Hepa saline solution (temperature between 4°-12° C.) between two to six hours.
Three groups of tissue were created. Group I (Glut only), Group II (Glut with 1% CT) and Group III (Glut with 10% CT). All tissues were then implanted subdermally in three sets of 8 (Group I), 9 (Group II) and 9 (Group III) male Wistar rats of 12 days old (Center for Experimental Surgery, Biomedical Research Foundation of the Academy of Athens). […] All tissues were rinsed three times in normal saline solution for 10 minutes each time before implantation. Each rat received four fragments of tissue at the dorsum, through four separate incisions (two at each side) each of 1 cm long, with a technique we have previously described elsewhere (Agathos E A et al: “In vivo calcification of glutaraldehyde fixed cardiac valve and pericardium of Phoca Groenlandica”: ASAIO 57(4):328-332, July/August 2011).
21 days later the rats were euthanized by inhalation of CO2. All procedures were approved by the Animal Care Committee of the Academy of Athens and performed according to the Guide for the Care and Use of Laboratory Animals prepared by the Institutes of Laboratory Animal Resources, National Research Council and published by the National Academy Press, revised 1996 (NIH publication No. 85-23). The tissues were retrieved and after rinsing with distilled water 3 times, were lyophilized at −40° C. at high vacuum pressure of approximately […] for 16 hours. The calcium content was then measured with flat atomic absorption technique.
For statistical analysis, the commercially available software package ANOVA Origin 8.0 for Windows (OriginLab Corporation, Northampton, Mass., USA) was used. P values of 0.05 or less were defined as a statistically significant difference.

Substance: salmon synthetic calcitonin [CT]
- Ca concentration accumulation in the explanted tissues (fold, post vs pre implantation) (Group II (1% CT)): 5.16 ×
- Cumulative results of post-implantation Ca concentration (Group II (1% CT), ns vs Group III): 24.69 ± 2.71
- Post implantation Ca Content (Group II: Glut with 1% CT): 24.69 mg Ca/gr tissue
- Ca concentration accumulation in the explanted tissues (fold, post vs pre implantation) (Group III (10% CT)): 9.43 ×
- Cumulative results of post-implantation Ca concentration (Group III (10% CT), ns vs Group II): 27.16 ± 2.95
- Post implantation Ca Content (Group III: Glut with 10% CT): 27.16 mg Ca/gr tissue
